Data: ChEMBL document CHEMBL5136973, “Update on the Development of MNK Inhibitors as Therapeutic Agents” (J Med Chem, 2022)

Tests used:
[1] = molecular target: T1, MAP kinase-interacting serine/threonine-protein kinase 1 (Homo sapiens, UniProt Q9BUB5); experiment: Inhibition of Mnk1 (unknown origin)
[2] = tested on: MV4-11; experiment: Growth inhibition of human MV4-11 cells measured after 72 hrs; type: functional
[3] = molecular target: T1, MAP kinase-interacting serine/threonine-protein kinase 1; experiment: Binding affinity to Mnk1 (unknown origin)
[4] = molecular target: T2, MAP kinase-interacting serine/threonine-protein kinase 2 (Homo sapiens, UniProt Q9HBH9); experiment: Binding affinity to Mnk2 (unknown origin)
Target sequence in this assay (Q9HBH9 whole entry): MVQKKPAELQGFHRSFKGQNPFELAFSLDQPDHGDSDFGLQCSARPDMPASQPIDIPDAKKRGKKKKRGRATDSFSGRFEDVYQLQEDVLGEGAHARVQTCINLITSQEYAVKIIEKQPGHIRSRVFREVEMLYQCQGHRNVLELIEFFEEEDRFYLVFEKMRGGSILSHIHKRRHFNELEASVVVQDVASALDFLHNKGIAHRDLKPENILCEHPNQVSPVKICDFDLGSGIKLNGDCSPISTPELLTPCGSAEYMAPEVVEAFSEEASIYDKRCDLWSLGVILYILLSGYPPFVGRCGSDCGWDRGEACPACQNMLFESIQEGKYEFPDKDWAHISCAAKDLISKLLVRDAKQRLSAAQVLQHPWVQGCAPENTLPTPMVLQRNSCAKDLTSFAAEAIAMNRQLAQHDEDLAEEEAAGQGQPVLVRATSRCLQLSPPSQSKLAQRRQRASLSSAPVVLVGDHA

[5] = molecular target: T2, MAP kinase-interacting serine/threonine-protein kinase 2; experiment: Inhibition of Mnk2 (unknown origin)
Target sequence in this assay (Q9HBH9 whole entry): as above

[6] = molecular target: T1, MAP kinase-interacting serine/threonine-protein kinase 1; experiment: Inhibition of Mnk1 (unknown origin) using eIF4E-derived (D 202 TATKSGSTTKNR 214) peptide as substrate incubated for 90 mins by IMAP TR-FRET assay
[7] = molecular target: T2, MAP kinase-interacting serine/threonine-protein kinase 2; experiment: Inhibition of His-tagged Mnk2 (unknown origin) using eIF4E-derived (D 202 TATKSGSTTKNR 214) peptide as substrate incubated for 90 mins by IMAP TR-FRET assay
Target sequence in this assay (Q9HBH9 whole entry): as above

[8] = Volume of distribution at steady state in male RH:Foxn1 nude rat; type: ADME; details: in vivo, read-out: Vdss
[9] = Volume of distribution at steady state in female NMRI-nu/nu mouse; type: ADME; details: in vivo, read-out: Vdss
[10] = Clearance in male RH:Foxn1 nude rat; type: ADME; details: in vivo
[11] = Clearance in female NMRI-nu/nu mouse; type: ADME; details: in vivo
[12] = Intermediate elimination half life in female NMRI-nu/nu mouse; type: ADME; details: in vivo, read-out: beta t1/2 (converted)
[13] = Intermediate elimination half life in male RH:Foxn1 nude rat; type: ADME; details: in vivo, read-out: beta t1/2 (converted)
[14] = Oral bioavailability in female NMRI-nu/nu mouse; type: ADME, organism-based; details: in vivo
[15] = Oral bioavailability in male RH:Foxn1 nude rat; type: ADME, organism-based; details: in vivo
[16] = Antitumor activity against human Lu7462 patient-derived NSCLC cells xenografted in female NMRI-nu/nu mouse assessed as T/C ratio at 200 mg/kg, po, qd for 94 days; type: functional; details: time 94 day
[17] = molecular target: Tyrosine-protein kinase BTK (Homo sapiens, UniProt Q06187); experiment: Inhibition of FLAG-tagged BTK (unknown origin) transfected into HEK293T cells incubated for 30 mins followed by ATP addition measured after 20 mins by Western blotting analysis; type: cell-based, HEK293
Chain of Tyrosine-protein kinase BTK (Q06187 whole entry): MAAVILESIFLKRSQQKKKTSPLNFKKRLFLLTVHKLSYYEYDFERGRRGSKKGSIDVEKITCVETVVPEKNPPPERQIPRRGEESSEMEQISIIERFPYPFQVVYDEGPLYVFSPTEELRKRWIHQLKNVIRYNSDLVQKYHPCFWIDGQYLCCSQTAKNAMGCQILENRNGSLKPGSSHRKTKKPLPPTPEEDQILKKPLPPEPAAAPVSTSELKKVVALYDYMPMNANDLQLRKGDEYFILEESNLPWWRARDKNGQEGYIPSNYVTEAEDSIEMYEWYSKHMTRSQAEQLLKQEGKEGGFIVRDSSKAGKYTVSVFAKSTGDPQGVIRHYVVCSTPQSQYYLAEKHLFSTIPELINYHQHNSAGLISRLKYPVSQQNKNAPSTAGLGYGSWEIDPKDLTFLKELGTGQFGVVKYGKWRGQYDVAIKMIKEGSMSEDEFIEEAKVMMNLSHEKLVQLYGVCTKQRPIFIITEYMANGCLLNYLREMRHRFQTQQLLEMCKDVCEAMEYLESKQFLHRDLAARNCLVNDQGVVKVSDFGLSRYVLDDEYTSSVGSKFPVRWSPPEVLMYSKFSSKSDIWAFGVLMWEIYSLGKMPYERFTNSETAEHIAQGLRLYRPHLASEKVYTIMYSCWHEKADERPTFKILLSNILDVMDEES

[18] = molecular target: T1, MAP kinase-interacting serine/threonine-protein kinase 1; experiment: Inhibition of FLAG-tagged Mnk1 (unknown origin) transfected into HEK293 cells incubated for 30 mins followed by ATP addition measured after 30 mins by Western blotting analysis; type: cell-based
[19] = molecular target: T2, MAP kinase-interacting serine/threonine-protein kinase 2; experiment: Inhibition of FLAG-tagged Mnk2 (unknown origin) transfected into HEK293 cells incubated for 30 mins followed by ATP addition measured after 30 mins by Western blotting analysis; type: cell-based
Target sequence in this assay (Q9HBH9 whole entry): as the sequence (Q9HBH9 whole entry) above

[20] = molecular target: T3, Tyrosine-protein kinase JAK3 (Homo sapiens, UniProt P52333); experiment: Inhibition of JAK3 (unknown origin)
T3 sequence (P52333 whole entry): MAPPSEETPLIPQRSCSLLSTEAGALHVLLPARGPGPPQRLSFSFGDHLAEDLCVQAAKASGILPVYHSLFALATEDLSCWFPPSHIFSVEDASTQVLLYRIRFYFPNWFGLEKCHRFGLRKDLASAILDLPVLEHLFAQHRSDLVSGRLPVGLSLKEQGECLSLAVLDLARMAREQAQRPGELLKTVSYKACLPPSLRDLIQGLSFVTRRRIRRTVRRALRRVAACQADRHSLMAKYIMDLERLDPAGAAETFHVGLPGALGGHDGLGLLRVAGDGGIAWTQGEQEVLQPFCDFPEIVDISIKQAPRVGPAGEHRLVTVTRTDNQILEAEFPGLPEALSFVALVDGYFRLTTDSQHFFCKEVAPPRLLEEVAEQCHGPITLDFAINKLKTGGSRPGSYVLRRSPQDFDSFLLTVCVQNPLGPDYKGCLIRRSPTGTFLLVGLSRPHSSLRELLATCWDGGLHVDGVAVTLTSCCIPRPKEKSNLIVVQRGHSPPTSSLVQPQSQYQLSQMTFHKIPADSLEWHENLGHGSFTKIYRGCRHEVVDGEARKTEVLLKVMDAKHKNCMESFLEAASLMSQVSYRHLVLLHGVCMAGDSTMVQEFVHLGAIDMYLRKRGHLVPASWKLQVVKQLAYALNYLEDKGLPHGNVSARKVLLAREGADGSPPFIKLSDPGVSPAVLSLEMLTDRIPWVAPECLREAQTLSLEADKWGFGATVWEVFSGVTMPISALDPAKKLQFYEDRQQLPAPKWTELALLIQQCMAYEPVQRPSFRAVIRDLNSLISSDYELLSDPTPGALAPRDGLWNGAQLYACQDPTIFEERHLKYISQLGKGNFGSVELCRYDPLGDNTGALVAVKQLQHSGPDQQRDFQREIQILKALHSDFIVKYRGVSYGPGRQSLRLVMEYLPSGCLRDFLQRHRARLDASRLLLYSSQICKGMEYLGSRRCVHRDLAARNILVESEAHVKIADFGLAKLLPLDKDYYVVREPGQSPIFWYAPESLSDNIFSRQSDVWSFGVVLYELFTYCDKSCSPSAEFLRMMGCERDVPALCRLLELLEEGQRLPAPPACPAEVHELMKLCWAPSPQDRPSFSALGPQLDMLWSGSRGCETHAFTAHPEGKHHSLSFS

[21] = molecular target: T1, MAP kinase-interacting serine/threonine-protein kinase 1; experiment: Inhibition of inactive form of MNK1 (unknown origin)
[22] = molecular target: T2, MAP kinase-interacting serine/threonine-protein kinase 2; experiment: Inhibition of MNK2 (unknown origin) at 123 nM
Target sequence in this assay (Q9HBH9 whole entry, looked up): as the sequence (Q9HBH9 whole entry) above

[23] = tested on: A2780; experiment: Antiproliferative activity against human A2780 cells; type: functional
[24] = tested on: SK-OV-3; experiment: Antiproliferative activity against human SK-OV-3 cells; type: functional
[25] = tested on: PC-3; experiment: Antiproliferative activity against human PC-3 cells; type: functional
[26] = tested on: MOLM-13; experiment: Antiproliferative activity against human MOLM-13 cells; type: functional
[27] = molecular target: T1, MAP kinase-interacting serine/threonine-protein kinase 1; experiment: Inhibition of Mnk1 (unknown origin) by ADP-Glo assay
[28] = molecular target: T2, MAP kinase-interacting serine/threonine-protein kinase 2; experiment: Inhibition of Mnk2 (unknown origin) by ADP-Glo assay
Target sequence in this assay (Q9HBH9 whole entry): as the sequence (Q9HBH9 whole entry) above

[29] = molecular target: T2, MAP kinase-interacting serine/threonine-protein kinase 2; experiment: Binding affinity to His-tagged Mnk2 (unknown origin) using D 202 TATKSGSTTKNR 214 as substrate by TR-FRET assay
Target sequence in this assay (Q9HBH9 whole entry): as the sequence (Q9HBH9 whole entry) above

[30] = tested on: MV4-11; experiment: Growth inhibition of human MV4-11 cells incubated for 72 hrs by multilabel plate reader method; type: functional
[31] = Growth inhibition of human Acute myeloid leukemic cells incubated for 72 hrs by multilabel plate reader method; type: functional; details: Acute myeloid leukemic cell
[32] = tested on: MV4-11; experiment: Induction of cell cycle arrest in human MV4-11 cells assessed as increase in sub G1/G2 DNA content at 20 uM (reference value: 64%); type: functional

T1 sequence (Q9BUB5 whole entry): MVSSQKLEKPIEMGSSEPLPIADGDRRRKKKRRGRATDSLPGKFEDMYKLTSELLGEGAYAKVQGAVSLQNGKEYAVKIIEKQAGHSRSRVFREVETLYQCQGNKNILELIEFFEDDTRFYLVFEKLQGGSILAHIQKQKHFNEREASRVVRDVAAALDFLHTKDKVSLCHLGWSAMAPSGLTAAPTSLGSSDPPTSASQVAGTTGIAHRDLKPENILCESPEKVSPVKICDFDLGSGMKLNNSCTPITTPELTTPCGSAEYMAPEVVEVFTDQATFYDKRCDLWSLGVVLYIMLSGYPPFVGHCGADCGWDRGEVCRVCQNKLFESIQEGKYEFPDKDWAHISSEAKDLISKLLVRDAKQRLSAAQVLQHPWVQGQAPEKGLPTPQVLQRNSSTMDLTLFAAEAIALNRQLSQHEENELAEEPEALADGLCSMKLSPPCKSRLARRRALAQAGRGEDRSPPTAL

## O=S1(=Nc2cc(Cl)c3c(Nc4ccc(F)cc4O[C@H]4COC[C@@H]4O)ncnc3c2)CCC1
[1]
  IC50: 18 nM

## CO[C@@H]1COC[C@@H]1Oc1cc(F)ccc1Nc1ncnc2cc(N=S(C)(C)=O)cc(C)c12
[1]
  IC50: 80 nM

## COc1ncc(C)cc1Nc1ncnc2[nH]ccc12
[2]
  GI50: 4640 nM
[3]
  Ki: 740 nM
[4]
  Ki: 1320 nM

## CN(C)CCCNC(=O)c1cc2ncnc(N3CCc4cc(F)ccc43)c2n1C
[5]
  IC50: 12.6 nM
[1]; read-out: pIC50 (converted)
  IC50: 12.6 nM

## Cc1c(C(=O)O)sc2ncnc(Nc3ccc(F)cc3OC(CF)CF)c12
[6]
  IC50: 147000 nM
[7]
  IC50: 50000 nM

## Cn1ccc2ncnc(Nc3ccc(F)cc3O[C@@H]3CCCOC3)c21
[5]
  IC50: 31.6 nM
[1]; read-out: pIC50 (converted)
  IC50: 63.1 nM

## CC(C)Oc1cc(F)ccc1Nc1ncnc2sc(C(=O)NCC3CCNCC3)nc12
[5]
  IC50: 50.1 nM
[1]; read-out: pIC50 (converted)
  IC50: 50.1 nM

## O=C(NCC1CCNCC1)c1nc2c(N3CCc4cc(Cl)ccc43)ncnc2s1
[5]
  IC50: 3.16 nM
[1]; read-out: pIC50 (converted)
  IC50: 3.16 nM

## COc1cc(N=S2(=O)CCC2)cc2ncnc(Nc3cccnc3O[C@H]3COC[C@H]3O)c12
[1]
  IC50: 104 nM

## Fc1ccc2c(c1)CCN2c1ncnc2cc[nH]c12
[5]
  IC50: 31.6 nM
[1]; read-out: pIC50 (converted)
  IC50: 39.8 nM

## CO[C@@H]1COC[C@@H]1Oc1cc(F)ccc1Nc1ncnc2cc(N=S3(=O)CCCC3)cc(Cl)c12
[1]
  IC50: 45 nM

## C[C@H](CN)Oc1ccc2ncc(-c3cc4ccccc4o3)n2n1
[8]
  Vd: 0.87 L/kg
[9]
  Vd: 6 L/kg
[10]
  clearance: 6.83 mL/min/kg
[11]
  clearance: 39 mL/min/kg
[12]
  half-life: 1.2 h
[13]
  half-life: 1.2 h
[14]
  bioavailability: 71%
[15]
  bioavailability: 78%
[16]
  T/C: 0.33

## COc1cc(N=S(C)(=O)C(C)(C)C)cc2ncnc(Nc3ccc(F)cc3O[C@H]3COC[C@H]3O)c12 (stereo partly drawn)
[1]
  IC50: 329 nM

## C=CC(=O)Nc1cc(-n2c(=O)ccc3cnc4ccc(-c5cn[nH]c5)cc4c32)ccc1C
[17]
  IC50: 9.4 nM
[18]
  IC50: 107 nM
[19]
  IC50: 26 nM
[20]
  IC50: 55.7 nM

## CC(C)Oc1cc(F)ccc1Nc1ncnc2sc(C(=O)NCCN3CCNCC3)nc12
[5]
  IC50: 31.6 nM
[1]; read-out: pIC50 (converted)
  IC50: 50.1 nM

## CNC(=O)c1nc2c(Nc3ccc(F)cc3OC(C)C)ncnc2s1
[5]
  IC50: 31.6 nM
[1]; read-out: pIC50 (converted)
  IC50: 50.1 nM

## Cn1ccc2ncnc(Nc3ccc(F)cc3OC(CF)CF)c21
[5]
  IC50: 50.1 nM
[1]; read-out: pIC50 (converted)
  IC50: 158 nM

## CN1CCC(C(=O)Nc2ncc(-c3ccccc3)s2)CC1
[21]
  IC50: 21 nM

## CN(C)CCCNC(=O)c1nc2c(N3CCc4ccccc43)ncnc2s1
[5]
  IC50: 7.94 nM
[1]; read-out: pIC50 (converted)
  IC50: 10 nM

## Cc1ncc(C(=O)Nc2ccc(CN3CCN(C)CC3)c(C(F)(F)F)c2)cc1C#Cc1cnc2cccnn12
[22]
  inhibition: 51%

## O=C1NC2(CCCCC2)n2c1c(Cl)cc(Nc1ccncn1)c2=O
[23]
  GI50: < 10000 nM
[24]
  GI50: < 10000 nM
[25]
  GI50: < 10000 nM
[26]
  GI50: < 10000 nM

## Cn1ccc2ncnc(Nc3ccc(F)cc3OC3CCCC3)c21
[5]
  IC50: 31.6 nM
[1]; read-out: pIC50 (converted)
  IC50: 126 nM

## CC(C)Oc1cc(F)ccc1Nc1ncnc2cc(C(=O)NCCCN(C)C)n(C)c12
[5]
  IC50: 39.8 nM
[1]; read-out: pIC50 (converted)
  IC50: 50.1 nM

## O=C(NCC1CCNCC1)c1nc2c(N3CCc4cc(F)ccc43)ncnc2s1
[5]
  IC50: 3.98 nM
[1]; read-out: pIC50 (converted)
  IC50: 5.01 nM

## CN(Cc1ccon1)Cc1cc(-c2ccnc3cc(Cl)ccc23)ccc1O
[27]
  IC50: 4700 nM
[28]
  IC50: 2600 nM

## Cc1ccc(C(=O)Nc2ccc(CN3CCN(C)CC3)c(C(F)(F)F)c2)cc1C#Cc1cnc2cccnn12
[22]
  inhibition: 32%

## Cc1c(-c2ccnc(Nc3ccccc3OC(F)F)n2)sc(=O)n1C
[29]
  Ki: 120 nM
[30]
  GI50: 780 nM
[31]
  GI50: 880 nM

## CC(C)Oc1cc(F)ccc1Nc1ncnc2cc(C(=O)NCC3CCNCC3)n(C)c12
[5]
  IC50: 39.8 nM
[1]; read-out: pIC50 (converted)
  IC50: 39.8 nM

## CC1(C)CN(c2ncnc3sc(C(=O)NCC4CCNCC4)nc23)c2ccccc21
[5]
  IC50: 2.51 nM
[1]; read-out: pIC50 (converted)
  IC50: 3.16 nM

## Nc1cccc2c1cnn2-c1ncnc2[nH]ccc12
[32]
  Activity: 92%

## Fc1ccc(Nc2ncnc3[nH]ccc23)nc1
[2]
  GI50: 8190 nM
[3]
  Ki: 1080 nM
[4]
  Ki: 430 nM

## CN(C)CCCNC(=O)c1nc2c(N3CC(C)(C)c4ccccc43)ncnc2s1
[5]
  IC50: 3.98 nM
[1]; read-out: pIC50 (converted)
  IC50: 6.31 nM

## CN(C)CCCNC(=O)c1nc2c(N3CCc4cc(F)ccc43)ncnc2s1
[5]
  IC50: 2 nM
[1]; read-out: pIC50 (converted)
  IC50: 2.51 nM

## CC(C)Oc1cc(C#N)ccc1Nc1ncnc2ccn(C)c12
[5]
  IC50: 25.1 nM
[1]; read-out: pIC50 (converted)
  IC50: 50.1 nM
